Assay results as given in PubChem BioAssay (NCI).
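Exposure lasted 48 hours, with cells grown in 96-well plates and compounds tested at five concentrations. TGI is the concentration that stops growth completely.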

Columns and labels:
Experiment in all cases: growth of human tumour cells (NCI), 48 h
[1] = system: MALME-3M melanoma
[2] = system: SK-MEL-5 melanoma
[3] = system: SK-MEL-28 melanoma
[4] = system: MDA-MB-435
[5] = system: OVCAR-8 ovarian
[6] = system: SN12C renal
[7] = system: A549 NSCLC
[8] = system: NCI-H522 lung
[9] = system: HCT-116 colon
[10] = system: KM12 colon
[11] = system: OVCAR-4 ovarian
[12] = system: MOLT-4 leukemia
[13] = system: NCI/ADR-RES ovarian
[14] = system: HOP-62 NSCLC
[15] = system: MDA-N
[16] = system: M14 melanoma
[17] = system: SK-OV-3 ovarian
[18] = system: MCF7 breast
[19] = system: NCI-H460 lung
[20] = system: HOP-92 NSCLC

Structure (SMILES)	TGI [1] [µM]	TGI [2] [µM]	TGI [3] [µM]	TGI [4] [µM]	TGI [5] [µM]	TGI [6] [µM]	TGI [7] [µM]	TGI [8] [µM]	TGI [9] [µM]	TGI [10] [µM]	TGI [11] [µM]	TGI [12] [µM]	TGI [13] [µM]	TGI [14] [µM]	TGI [15] [µM]	TGI [16] [µM]	TGI [17] [µM]	TGI [18] [µM]	TGI [19] [µM]	TGI [20] [µM]
CC12CCC(CC1=O)C2(C)CCC(N)=O (stereo unspecified)	> 100	> 100	> 100	> 100	> 100	> 100	> 100	> 100	> 100	> 100	> 100	> 100	> 100	> 100	> 100	> 100	> 100	> 100		
S=c1sc2c(s1)SCCCCSCCCCSc1sc(=S)sc1SCCCCSCCCCS2	> 100	> 100	> 100	> 100	> 100	> 100	> 100	> 100	> 100	> 100		> 100	> 100	> 100	> 100	> 100	> 100	> 100	> 100	
O=C(/C=C(\O)c1ccccc1)C(=O)NNc1ccc([N+](=O)[O-])cc1[N+](=O)[O-]	82.4	60.1	60.8	> 100	53.6	31.8	34.1	82.4	27.4	33.7	95	38.3	36.6	37.8	78.1	31.3	41.6	> 100	40.2	
N=c1oc2cc(O)ccc2cc1C(=O)NCc1ccccc1	58.7	29.5	> 100	58.3	68.1	48.8	> 100	39.1	71.3	> 100	> 100	53.3	53.5	> 100	49.7	> 100	70	> 100	> 100	
CC(=O)N1C(=O)/C(=C\C(=O)c2ccc([N+](=O)[O-])cc2)c2ccccc21	45.9	> 100		61.2	> 100	35	> 100	30.9	37.8	55.5	34.5	51.6	> 100	> 100	49.2	> 100	> 100	69.7	39.9	
[N-]=[N+]=Nc1c(C=O)c(=O)n2c3c(cccc13)CCC2	4.26	27.5	27.2	20.1	17.8	37.5	40.9		10.9	34.6	8.49	4.26	> 45.6	35.2	15.3	3.9	33.9	10.6	47.2	4.5
COc1ccc2oc(=N)c(C(=O)NCc3ccccc3)cc2c1	39.3	> 100	> 100	34.2	40.4	> 100	> 100	43.5	> 100	29.6	> 100	> 100	36.8	55.8	59.9	> 100	56.7	69.1	> 100	
COc1ccc(OCc2nc3cc(C(F)(F)F)ccc3nc2-c2ccccc2)cc1	> 100	> 100	> 100	> 100	> 100	> 100	> 100		> 100	> 100	> 100	> 100	> 100	> 100	> 100	> 100	> 100	> 100	> 100	> 100
CC(=O)OCC1OC(SC2=N/C(=C\c3cc4c(=O)c5ccccc5sc4s3)C(=O)N2c2ccccc2)C(OC(C)=O)C(OC(C)=O)C1OC(C)=O (stereo unspecified)	> 100	> 100	> 100	> 100	> 100	> 100		> 100	> 100	> 100	> 100	54.4	> 100	> 100	> 100			> 100	> 100	
CCNCCNc1c2ccccc2nc2ccccc12	4.6	7.41		2.59	7.06	4.91	4.95	4.69	7.99	4.79	11.1	> 100	19.5	4.21	2.81	3.05	12.2	3.4	1.54	
CC(=O)N1C(c2[nH]c3ccccc3c2-c2ccccc2)CCN1c1ccccc1 (stereo unspecified)	> 10	> 10	> 10	> 10	> 10	> 10	> 10	> 10	> 10		> 10	> 10	> 10	> 10	> 10	> 10	> 10	> 10	> 10	
